For data set [1], the system named is duck hepatitis B virus (DHBV). The experiment in a line: Dot blot hybridization of DHBV DNA from DHBV-infected primary duck hepatocyte cultures. Format: cell-based. The note with it: for inhibition at 10 µg/mL / inhibition at 1 µg/mL / IC50: Duck hepatitis B virus, Hepatocyte; for inhibition at 10 µg/mL / inhibition at 1 µg/mL: 480 h; for inhibition at 10 µg/mL: read-out: PERCENTAGE INHIBITION, 10 µg/ml; for inhibition at 1 µg/mL: read-out: PERCENTAGE INHIBITION, 1 µg/ml; for IC50: DHBV-infected hepatocytes, drug from day 2, DNA extracted on day sixteen, radioactivity of dots counted, read-out: concentrations of nucleoside analog required to inhibit the virus replication by 50% (ID₅₀). On the procedure:
Dose response curves for the purine 2′,3′-dideoxynucleosides and pyrimidine 2′,3′-dideoxynucleosides have been established by using the duck hepatitis B virus (DHBV) infected hepatocyte system. The DHBV-infected hepatocyte cultures were established as described in Example 1. Dideoxynucleoside analogs were added to the media of the hepatocyte cultures on day 2 and maintained in culture with media changes every two days. On day sixteen the DNA was extracted from the cells and the dot blots performed using the ³²P-labelled DHBV probe. The radioactivity of each "dot" was quantitated by cutting out the "dot" and counting the radioactivity. The abbreviations used in Figure 1, setting out the dose response curves, are as follows: ddA = 2′,3′-dideoxyadenosine; ddG = 2′,3′-dideoxyguanosine; ddDAPR = 2,6-diaminopurine 2′,3′-dideoxyriboside; ddI = 2′,3′-dideoxyinosine; ddT = 2′,3′-dideoxythymidine; ddC = 2′,3′-dideoxycytidine.
Newborn ducklings are infected with DHBV. After 5 to 7 days post-infection, samples of blood are taken from the ducklings and examined for DHBV DNA using dot hybridization with a specific DNA probe [Mason et al, Proc. Natl. Acad. Sci. USA 79, 3997-4001 (1982)]. The livers are removed from dot-blot positive ducklings and used to produce primary hepatocyte cultures infected with DHBV as previously described. (Tuttleman et al, J. of Virology, 58, 17-25). After 2 days in culture, antiviral agents are added to the culture media. The media are changed every 2 days and at selected times, the cells are removed and the total DNA extracted.
The DNA is spotted on nitrocellulose paper and probed with the ³²P-labelled DHBV DNA probe in accordance with the following procedure. The DNA from DHBV-infected hepatocytes was extracted and spotted onto a nitrocellular filter. The above described ³²P-nick translated - DHBV DNA (pDH-010=DHBV) probe was used. The DNA was extracted from 6-cm cell culture dishes at various times post-plating. In the VC group, cells were harvested at 2, 6, 8, 10, 14, 18 and 20 days. Duplicate samples were spotted for days 14, 18 and 20. In drug-treated groups, cells were harvested on days 8, 14 and 20. In Figure 1, this is from left to right. Drugs were added to the culture at 2 days post-plating and maintained throughout media changes every 2 days. The concentrations (µg/ml) used are indicated in Figure 1 for 2′,3′-dideoxythymidine (ddT), 2′,3′-dideoxycytidine (ddC), adenine arabinoside (ara A), 2′,3′-dideoxyadenosine (ddA) and 2′,3′-dideoxyguanosine (ddG). The total intracellular DNA was extracted from cells using the standard phenol extraction method. The cells in a 6-cm diameter Petri dish (approximately 5 x 10⁶ cells) were lysed in a lysis buffer containing 0.2% SDS, 150 mM Tris-HCl pH 8.0, 10 mM EDTA, 5 mM EGTA, and 150 mM NaCl. The cell lysate was digested with 0.5 mg/ml of pronase E (available from Sigma) at 37°C for 2 hours and deproteinized by extraction with an equal volume of phenol saturated with 20 mM Tris HCl, pH 7.5, 0.5 mM EDTA and 0.1% 8-hydroxyquinoline. Concentrated ammonium acetate [pH 7.0 (2.5 M)] was added to the aqueous phase to yield a 0.25 M ammonium acetate solution and the nucleic acids were precipitated with 2 volumes of 100% ethanol. The pellet of nucleic acid was washed with ethanol and dried. The DNA was dissolved in a solution containing 12.5 mM Tris HCl, pH 7.5, 10 mM EDTA, 30% glycerol and 0.01% bromophenol blue. One twelfth of the DNA sample was spotted onto the nitrocellulose for dot-blot analysis. ddA, ddG, ddC and ddT were purchased from Pharmacia. 2,6-Diaminopurine 2′,3′-dideoxyriboside [or 2,6-diamino-9-2,3-dideoxy-β-D-glycero-pentofuranosyl)purine] (ddDAPR) can be prepared by a procedure recently used for efficient conversion of adenosine into its ddAdo derivative (Robins et al, Tetrahedron Lett., 25, […], 1984; Hansske and Robins, Tetrahedron Lett., 26, 4295-4298, 1985).

The subject of another data set is extracellular DHBV. The experiment in a line: Southern blot analysis of extracellular virion DNA from culture media of DHBV-infected hepatocytes. To be noted: 1 µg/ml; culture media pooled from day 16 to day 20. It is filed as cell-based, duck hepatitis B virus (DHBV). The text has this: Southern blot analysis of the extracellular virion DNA was separated on a 1.5% agarose gel. Culture media were pooled from the day 16 to day 20 post-plating. Pelleted virions were digested with pronase and the DNA from the entire sample was applied to each lane. […] RC in Figure 3 indicated relaxed circular DNA.

The conditions of data set [2]: cited from earlier work.
Another data set relates to hepatitis B virus. The note with it: cited from earlier work.
For data set [3], the system named is monkey kidney cells (Vero). The data set can be described thus: Toxicity (cell viability) in monkey kidney cells. Format: cell-based. To be noted: 100 µg/ml over a 10 day exposure. On the procedure:
(§1) The toxicity of the purine 2′,3′-dideoxynucleosides has been tested in duck hepatocytes and monkey kidney cells (Vero) to reveal that decreased cell viability with ddA or ddG at 100 µg/ml over a 10 day exposure was not detected. As is known, several lymphocyte cell lines have been examined before for viability and function in the presence of 2′,3′-dideoxynucleosides. These cell lines have not shown decreased viability and function in the presence of 2′,3′-dideoxynucleosides.

The subject of the next data set is DHBV DNA. The data set can be described thus: Southern blot analysis of intracellular viral DNA from DHBV-infected hepatocytes. The note with it: for change in DHBV DNA forms in treated hepatocytes: from day 14 to day 20; for inhibition at 1 µg/mL: Duck hepatitis B virus, Hepatocyte, similar experiments to the Southern blot of Example 2. Format: cell-based, duck hepatitis B virus (DHBV). The protocol: Southern blot analysis of intracellular viral DNA was separated on a 1.5% agarose gel. The DNA was extracted from DHBV-infected hepatocytes in a 6-cm dish and one fifth of the total DNA was applied onto each lane. […] Drug-treated groups were harvested 14 and 20 days post-plating. The DNA samples from drug-treated hepatocytes were ddA (10 µg/ml), day 14 (lane 5) and day 20 (lane 6), ddA (1 µg/ml), day 14 (lane 7) and day 20 (lane 8), ddG (10 µg/ml), day 14 (lane 9) and day 20 (lane 10), ddG (1 µg/ml), day 14 (lane 11) and day 20 (lane 12). The size markers (Kilobases) were obtained from HindIII digested bacteriophage λ DNA.

The test system of a further data set is duck hepatocytes. The experiment in a line: Toxicity (cell viability) in duck hepatocytes. The note with it: 100 µg/ml over a 10 day exposure. It is filed as cell-based. The protocol: as §1
For a further data set, the system named is DHBV. The data set can be described thus: In vivo treatment of Pekin ducks persistently infected with DHBV, dot blot of sera. To be noted: 10 mg/kg twice daily by intramuscular injection, four ducks. The protocol:
Additional tests were conducted to verify the activity in vivo. Four Pekin ducks with proven persistent infection with DHBV were treated with 2,6-diaminopurine 2′,3′-dideoxyriboside (ddDAPR). The animals received 10 mg/kg twice daily by intramuscular injection for two weeks. […] All five animals had evidence of persistent infection with DHBV. […] The untreated duck (number 5) was not bled at this time. […] The control animal (number 5) remained strongly positive after 2 weeks (row c, column 5).

A further data set addresses adenosine deaminase (Homo sapiens, UniProt P00813). The note with it: Balzarini et al 1987; cited from earlier work.
The nature of data set [4]: Conversion of ddDAPR to ddG in whole blood. It is filed as in vitro ADME. To be noted: whole blood from a duck, in 5 minutes; read-out: ddDAPR metabolized to ddG. The text has this:
We have also confirmed that ddDAPR is rapidly metabolized to ddG. This has been done using whole blood from a duck and measuring the rate of conversion of ddDAPR to ddG.

Where [5] appears, read: densitometry scans of the dot hybridization at 20 days.

Consider eight molecules from EP0302760A2, “Antiviral therapy for hepatitis B using 2',3'-dideoxynucleosides” (priority 1987, dated 1989).

≈ marks a conversion by molar mass, not a printed value. Like-named read-outs stand apart in the source and are kept apart here.

Sequence of adenosine deaminase (P00813 whole entry): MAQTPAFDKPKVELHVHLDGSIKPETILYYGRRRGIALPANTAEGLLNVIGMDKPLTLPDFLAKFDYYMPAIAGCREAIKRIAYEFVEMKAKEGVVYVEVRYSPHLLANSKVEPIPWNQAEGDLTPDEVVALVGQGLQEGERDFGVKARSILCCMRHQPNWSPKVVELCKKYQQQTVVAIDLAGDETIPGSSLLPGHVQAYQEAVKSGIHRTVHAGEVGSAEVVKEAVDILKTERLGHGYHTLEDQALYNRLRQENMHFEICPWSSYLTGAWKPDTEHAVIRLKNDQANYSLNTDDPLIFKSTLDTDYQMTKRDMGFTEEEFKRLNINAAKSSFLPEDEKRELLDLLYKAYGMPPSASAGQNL

As for “2′,3′-dideoxythymidine [ddT, reference compound]”, in data set [1] (dose response curve, day sixteen, Figure 1), the “inhibition of DHBV replication” value is listed as “no inhibition”. Moreover, the “production of extracellular virus” value with extracellular DHBV is “fail to inhibit”.

As for `Cc1cn([C@H]2C[C@H](N=[N+]=[N-])[C@@H](CO)O2)c(=O)[nH]c1=O` [AZT, 3′-azido-3′deoxythymidine], the peak plasma levels in data set [2] (after infusions of 1 mg/kg) and in data set [2] (after oral administration of 2 mg/kg) was 1 µg/mL throughout.

`Nc1ncnc2c1ncn2[C@@H]1O[C@H](CO)[C@@H](O)[C@@H]1O` [araA, adenine arabinoside]: in data set [1] (setting [5]), the inhibition at 10 µg/mL was roughly 63%. Also, the “toxicity associated with therapy” value in the data set on hepatitis B virus (chronic hepatitis B patients) is “bone marrow suppression, neuromuscular pain and neurotoxicity”. Also, the “treated patients that show some benefit from therapy” value in the data set on hepatitis B virus (chronic hepatitis B, most open and controlled studies) is given as “about 30%”.

`Nc1ncnc2c1ncn2[C@H]1CC[C@@H](CO)O1` [ddA, 2′,3′-dideoxyadenosine]: the decreased cell viability entry (in data set [3]; with duck hepatocytes) was “not detected” each time. In addition, the “inhibition of the synthesis of all forms of DHBV DNA” value in the data set on DHBV DNA (1 µg/ml, RC, CCC and SS forms) is reported as “very strong inhibition”. For the same molecule, the “change in DHBV DNA forms in treated hepatocytes” value in the data set with DHBV DNA is on record as “small increase in RC DNA”. Moreover, the inhibition at 1 µg/mL in data set [1] (setting [5]) was greater than 99%. Also, in data set [1] (setting [5]), the inhibition at 10 µg/mL is greater than 99%. The IC50 in data set [1] (Figure 1) came out at 0.12 mg/L (≈ 0.51 µM). Besides, the “production of extracellular virus” value with extracellular DHBV was “markedly decreased”.

As to `Nc1ccn([C@H]2CC[C@@H](CO)O2)c(=O)n1` [ddC, 2′,3′-dideoxycytidine, reference compound], the “PERCENTAGE INHIBITION” value in data set [1] (1 µg/ml, densitometry scans of the dot hybridization at 20 days) is on record as “little inhibitory effect”. Also, in data set [1] (setting [5]), the inhibition at 1 µg/mL came to 0% and the inhibition at 10 µg/mL was roughly 57%. Besides, the IC50 in data set [1] (Figure 1) was found to be 40 mg/L (≈ 189 µM). Besides, the “production of extracellular virus” value in the data set with extracellular DHBV is listed as “fail to inhibit”.

For the molecule `Nc1nc(N)c2ncn([C@H]3CC[C@@H](CO)O3)c2n1` [ddDAPR, 2,6-diaminopurine 2′,3′-dideoxyriboside], the “clearance of the virus from the sera” value with DHBV (after 1 week) is listed as “completely cleared the virus from their sera”; in the data set on DHBV (after 2 weeks) it was “cleared from the sera”. Besides, the values for the inhibition at 1 µg/mL (with DHBV DNA (1 µg/ml); in data set [1] (setting [5])) were greater than 95% and 98%, respectively. In data set [1] (Figure 1), the IC50 turned out to be 0.07 mg/L (≈ 0.28 µM). Further, the “deamination by adenosine deaminase” value on adenosine deaminase is “deaminated by adenosine deaminase”. In data set [4], the metabolised at 5 min was greater than 95%.

With `Nc1nc2c(ncn2[C@H]2CC[C@@H](CO)O2)c(=O)[nH]1` [ddG, 2′,3′-dideoxyguanosine], the decreased cell viability entry (in data set [3]; in the data set with duck hepatocytes) was “not detected” each time. Further, the “change in DHBV DNA forms in treated hepatocytes” value in the data set with DHBV DNA is “decrease in all forms of DHBV DNA”. In addition, in data set [1] (setting [5]), the inhibition at 1 µg/mL is greater than 99%. Also, the inhibition at 10 µg/mL in [1] (setting [5]) is greater than 99%. Also, in [1] (Figure 1), the IC50 worked out at 0.07 mg/L (≈ 0.279 µM). Also, in the data set on extracellular DHBV, the “production of extracellular virus” value is “markedly decreased”.

For `OC[C@@H]1CC[C@H](n2cnc3c(O)ncnc32)O1` [ddI, 2′,3′-dideoxyinosine], the inhibition at 1 µg/mL was greater than 95% with DHBV DNA (1 µg/ml) and 96% in data set [1] (setting [5]).
